US20240382482A1, “PLASMA KALLIKREIN INHIBITORS” (TAKEDA PHARMACEUTICAL COMPANY LIMITED, priority 2021, published 2024)
pEC50: −log10 of the molar value.

biological target: human activated kallikrein enzyme (Homo sapiens, UniProt P03952); experiment: Inhibition of human activated kallikrein enzyme, fluorogenic peptide substrate assay (500 pM enzyme format); assay type: biochemical; details: 500 pM activated kallikrein, 300 μM PFR-AMC substrate, 30 min preincubation, 10 min reaction, room temperature; read-out: Primary Dose Response Assay: Average EC50
Sequence (P03952 391-638 limits assumed): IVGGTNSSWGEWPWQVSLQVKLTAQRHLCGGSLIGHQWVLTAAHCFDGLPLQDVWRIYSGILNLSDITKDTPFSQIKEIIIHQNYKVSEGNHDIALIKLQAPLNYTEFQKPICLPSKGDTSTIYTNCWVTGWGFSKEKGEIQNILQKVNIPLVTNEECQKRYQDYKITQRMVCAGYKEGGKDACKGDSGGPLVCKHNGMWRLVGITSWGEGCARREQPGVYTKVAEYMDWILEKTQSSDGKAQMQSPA
Sequence (P03952 20-390 partner limits assumed): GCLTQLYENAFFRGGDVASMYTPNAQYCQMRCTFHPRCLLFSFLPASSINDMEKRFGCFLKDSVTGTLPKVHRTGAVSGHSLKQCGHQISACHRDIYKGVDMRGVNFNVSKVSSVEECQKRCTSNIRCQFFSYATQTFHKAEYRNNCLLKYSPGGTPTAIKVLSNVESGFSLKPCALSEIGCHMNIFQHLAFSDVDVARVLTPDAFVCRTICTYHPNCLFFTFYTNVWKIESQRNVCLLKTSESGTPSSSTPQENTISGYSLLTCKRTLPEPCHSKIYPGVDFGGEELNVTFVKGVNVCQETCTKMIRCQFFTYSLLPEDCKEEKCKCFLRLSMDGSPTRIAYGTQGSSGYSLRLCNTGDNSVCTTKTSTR
How it was run: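 500 pM enzyme preincubated 30 min at room temperature with inhibitor in 20 mM Tris pH 7.5, 150 mM NaCl, 1 mM EDTA, 0.1% PEG-400, 0.1% Triton X-100. Reaction started with 300 μM PFR-AMC and run 10 min at room temperature. AMC fluorescence read at ex 380/em 460 nm, and EC50 values reported as ranges.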

SMILES | pEC50
Cc1cc(N)nc(C)c1CNc1cc(NCc2cn3cc(C4CC4)ccc3n2)ncn1 [Example 111, N^4-((6-amino-2,4-dimethylpyridin-3-yl)methyl)-N^6-((6-cyclopropylimidazo[1,2-a]pyridin-2-yl)methyl)pyrimidine-4,6-diamine] | ≥ 8.30
O=C(/C=C/c1cccc(Cl)c1)Nc1cc(NCc2cn3cc(C4CC4)ccc3n2)ccn1 [Example 114, (E)-3-(3-chlorophenyl)-N-(4-(((6-cyclopropylimidazo[1,2-a]pyridin-2-yl)methyl)amino)pyridin-2-yl)acrylamide] | 7.30 to 8.30
O=C(Cn1ccc2ccc(Cl)cc21)Nc1cc(NCc2cn3cc(C4CC4)ccc3n2)ccn1 [Example 115, 2-(6-chloro-1H-indol-1-yl)-N-(4-(((6-cyclopropylimidazo[1,2-a]pyridin-2-yl)methyl)amino)pyridin-2-yl)acetamide] | 5.05 to 6.30
O=C(CNc1cc(Cl)ccc1-n1cnnn1)Nc1cc(NCc2cn3cc(C4CC4)ccc3n2)ccn1 [Example 117, 2-((5-chloro-2-(1H-tetrazol-1-yl)phenyl)amino)-N-(4-(((6-cyclopropylimidazo[1,2-a]pyridin-2-yl)methyl)amino)pyridin-2-yl)acetamide] | 7.30 to 8.30
O=C(Cn1cc(Cl)ccc1=O)Nc1cc(NCc2cn3cc(C4CC4)ccc3n2)ncn1 [Example 119, 2-(5-chloro-2-oxopyridin-1 (2H)-yl)-N-(6-(((6-cyclopropylimidazo[1,2-a]pyridin-2-yl)methyl)amino)pyrimidin-4-yl)acetamide] | < 5.05
O=C(Nc1cc(NCc2cn3cc(C4CC4)ccc3n2)ccn1)C1CCc2ccc(Cl)cc2C1 (centres unmarked) [Example 120, 7-chloro-N-(4-(((6-cyclopropylimidazo[1,2-a]pyridin-2-yl)methyl)amino)pyridin-2-yl)-1,2,3,4-tetrahydronaphthalene-2-carboxamide] | 5.05 to 6.30
COc1ccc(=O)n(CC(=O)Nc2cc(NCc3cn4cc(C5CC5)ccc4n3)ncn2)c1 [Example 121, N-(6-(((6-cyclopropylimidazo[1,2-a]pyridin-2-yl)methyl)amino)pyrimidin-4-yl)-2-(5-methoxy-2-oxopyridin-1 (2H)-yl)acetamide] | < 5.05
O=C(Cn1c(=O)oc2ccc(Cl)cc21)Nc1cc(NCc2cn3cc(C4CC4)ccc3n2)ccn1 [Example 124, 2-(5-chloro-2-oxobenzo[d]oxazol-3 (2H)-yl)-N-(4-(((6-cyclopropylimidazo[1,2-a]pyridin-2-yl)methyl)amino)pyridin-2-yl)acetamide] | 5.05 to 6.30
COc1ccc2oc(=O)n(CC(=O)Nc3cc(NCc4cn5cc(C6CC6)ccc5n4)ccn3)c2c1 [Example 125, N-(4-(((6-cyclopropylimidazo[1,2-a]pyridin-2-yl)methyl)amino)pyridin-2-yl)-2-(5-methoxy-2-oxobenzo[d]oxazol-3 (2H)-yl)acetamide] | < 5.05
O=C(CC1(c2cccc(Cl)c2)CC1)Nc1cc(NCc2cn3cc(C4CC4)ccc3n2)ccn1 [Example 126, 2-(1-(3-chlorophenyl)cyclopropyl)-N-(4-(((6-cyclopropylimidazo[1,2-a]pyridin-2-yl)methyl)amino)pyridin-2-yl)acetamide] | 5.05 to 6.30
NC(=O)Cc1cc2c(Cl)cn(-c3cc(NCc4cn5cc(C6CC6)ccc5n4)ccn3)c2cc1F [Example 127, 2-(3-chloro-1-(4-(((6-cyclopropylimidazo[1,2-a]pyridin-2-yl)methyl)amino)pyridin-2-yl)-6-fluoro-1H-indol-5-yl)acetamide] | 5.05 to 6.30
N#C/N=C(\NCc1cccc(Cl)c1)Nc1cc(NCc2cn3cc(C4CC4)ccc3n2)ccn1 [Example 128, (E)-1-(3-chlorobenzyl)-2-cyano-3-(4-(((6-cyclopropylimidazo[1,2-a]pyridin-2-yl)methyl)amino)pyridin-2-yl)guanidine] | 5.05 to 6.30
O=C(Cc1cnc2[nH]cc(Cl)c2c1)Nc1cc(NCc2cn3cc(C4CC4)ccc3n2)ncn1 [Example 129, 2-(3-chloro-1H-pyrrolo[2,3-b]pyridin-5-yl)-N-(6-(((6-cyclopropylimidazo[1,2-a]pyridin-2-yl)methyl)amino)pyrimidin-4-yl)acetamide] | 6.30 to 7.30
O=C(Cc1cc2c(Cl)c[nH]c2cc1F)Nc1cc(NCc2cn3cc(C4CC4)ccc3n2)ccn1 [Example 132, 2-(3-chloro-6-fluoro-1H-indol-5-yl)-N-(4-(((6-cyclopropylimidazo[1,2-a]pyridin-2-yl)methyl)amino)pyridin-2-yl)acetamide] | 7.30 to 8.30
C[C@H](C(=O)Nc1cc(NCc2cn3cc(C4CC4)ccc3n2)ncn1)[C@@H](C)c1cccc(Cl)c1 [Example 133, (2S,3R)-3-(3-chlorophenyl)-N-(6-(((6-cyclopropylimidazo[1,2-a]pyridin-2-yl)methyl)amino)pyrimidin-4-yl)-2-methylbutanamide] | < 5.05
C[C@H](c1cccc(Cl)c1)[C@@H](C)C(=O)Nc1cc(NCc2cn3cc(C4CC4)ccc3n2)ncn1 [Example 134, (2R,3S)-3-(3-chlorophenyl)-N-(6-(((6-cyclopropylimidazo[1,2-a]pyridin-2-yl)methyl)amino)pyrimidin-4-yl)-2-methylbutanamide] | 5.05 to 6.30

The remaining lines, values ahead:

pEC50 | SMILES
≥ 8.30 | Cc1cc(CN)cc(C)c1CNc1cc(OCc2cn3cc(C4CC4)ccc3n2)ncn1 [Example 108, N-(4-(aminomethyl)-2,6-dimethylbenzyl)-6-((6-cyclopropylimidazo[1,2-a]pyridin-2-yl)methoxy)pyrimidin-4-amine]
7.30 to 8.30 | O=C(COc1cc(Cl)ccc1-n1cnnn1)Nc1cc(NCc2cn3cc(C4CC4)ccc3n2)ccn1 [Example 116, 2-(5-chloro-2-(1H-tetrazol-1-yl)phenoxy)-N-(4-(((6-cyclopropylimidazo[1,2-a]pyridin-2-yl)methyl)amino)pyridin-2-yl)acetamide]
6.30 to 7.30 | O=C(Nc1cc(NCc2cn3cc(C4CC4)ccc3n2)ccn1)c1ccc2ccc(Cl)cc2c1 [Example 118, 7-chloro-N-(4-(((6-cyclopropylimidazo[1,2-a]pyridin-2-yl)methyl)amino)pyridin-2-yl)-2-naphthamide]
< 5.05 | COc1ccc2oc(=O)n(CC(=O)Nc3cc(NCc4cn5cc(C6CC6)ccc5n4)ncn3)c2c1 [Example 122, N-(6-(((6-cyclopropylimidazo[1,2-a]pyridin-2-yl)methyl)amino)pyrimidin-4-yl)-2-(5-methoxy-2-oxobenzo[d]oxazol-3 (2H)-yl)acetamide]
5.05 to 6.30 | O=C(Cn1c(=O)oc2ccc(Cl)cc21)Nc1cc(NCc2cn3cc(C4CC4)ccc3n2)ncn1 [Example 123, 2-(5-chloro-2-oxobenzo[d]oxazol-3 (2H)-yl)-N-(6-(((6-cyclopropylimidazo[1,2-a]pyridin-2-yl)methyl)amino)pyrimidin-4-yl)acetamide]
≥ 8.30 | O=C(Cc1cnc2[nH]cc(Cl)c2c1)Nc1cc(NCc2cn3cc(C4CC4)ccc3n2)ccn1 [Example 130, 2-(3-chloro-1H-pyrrolo[2,3-b]pyridin-5-yl)-N-(4-(((6-cyclopropylimidazo[1,2-a]pyridin-2-yl)methyl)amino)pyridin-2-yl)acetamide]
5.05 to 6.30 | O=C(Cc1cc2c(Cl)c[nH]c2cc1F)Nc1cc(NCc2cn3cc(C4CC4)ccc3n2)ncn1 [Example 131, 2-(3-chloro-6-fluoro-1H-indol-5-yl)-N-(6-(((6-cyclopropylimidazo[1,2-a]pyridin-2-yl)methyl)amino)pyrimidin-4-yl)acetamide]
